Earlier results on one compound are cited in patent US20130108701A1, “Solid Dosage Forms of Antipsychotics” (priority 2010, published 2013).

Each structure is given as a SMILES string. Counter-ions that a name gives are not always drawn.

Assay in data set [1]: not given
The source holds these as a separate data set.

Consider `O=C1Cc2cc(CCN3CCN(c4nsc5ccccc45)CC3)c(Cl)cc2N1` [Ziprasidone hydrochloride, 5-[2-[4-(1,2-benzisothiazol-3-yl)-1-piperazinyl]ethyl]-6-chloro-1,3-dihydro-2H-indol-2-one], for which the permeability entry was “high”. The aqueous solubility entry in data set [1] is recorded as “relatively poor”.
